Paper PMC6235670, “An mTOR Signaling Modulator Suppressed Heterotopic Ossification of Fibrodysplasia Ossificans Progressiva” (Stem Cell Reports, 2018)

Legend:
[1] = tested on: NOD/SCID mice transplanted with FOP-iMSCs
Source text: (§1) MTOR s604 […]tt […]at […]
For X- ray images, mice were anesthetized with isoflurane (5% for induction, 2-3% for maintenance, Abbvie), immobilized and X-rayed using µFX-1000 (Fujifilm) or DX-50 (Faxitron Bioptics). µCT images were scanned using X-ray CT systems (inspeXio SMX-100CT, Shimadzu) and analyzed with TRI/3D-BON software (Ratoc System Engineering) according to the manufacturer's instructions. […]
Activin-A-induced HO model transplanted with FOP-iMSCs. FOP- (right leg) and resFOP-iMSCs (left leg) (4 x 10^6 cells, respectively) were transplanted into the gastrocnemius muscle of NOD/ShiJic-scid Jcl (NOD/SCID) mice (8 weeks, male, CLEA Japan) with C3H -DoxOn-hINHBA (5 x 10^5 cells), which can continuously expose Activin-A to the transplanted iMSCs in vivo ( Hino et al., 2015) . In the Dox-induced group, 1 mg/mL Dox (Sigma-Aldrich) was administered via drinking water with 10 mg/mL sucrose (Nacalai Tesque) for two weeks after transplantation. Compounds were intraperitoneally administered once a day, five times a week. Eight weeks after transplantation, the transplanted cells were harvested , fixed with 4% paraformaldehyde for 24 h, embedded in paraffin, and sectioned and stained with HE, von Kossa, Safranin O, human specific anti-Vimentin antibody and Collagen I antibody as previously described (Hino et al., 2015; Umeda et al., 2012; […]

[2] = tested on: TGF-β signaling (CAGA-Luc); experiment: CAGA-Luc reporter assay in FOP-iMSCs; format: cell-based, human; details: activin A and compounds for 3 hr
Procedure: FOP-iMSCs transiently transfected with BRE-Luc (A) or CAGA-Luc (B) with CMV-Renilla were stimulated with activin A and compounds for 16 hr (A) or 3 hr (B). […] One day after siRNA transfection, chondrogenic induction with activin A was initiated, and after 7 days the cells were harvested. […] FOP-iMSCs cultured with 10% FBS were treated with 100 nM rapamycin (Rapa) or TAK 165 (TAK) for 2 hr, and the cells were harvested. […] 1 μM TAK, 1 μM CP (CP-724714, another selective ERBB2 inhibitor), or 10 nM Rapa were applied in the experiments.

[3] = tested on: FOP-ACVR1 (R206H) conditional transgenic mice
Procedure: as §1
Cardiotoxin-induced HO model in human FOP-ACVR1 conditional transgenic mice. Female hFOP-ACVR1 conditional transgenic mice (Beard et al., 2006; Hino et al., 2017; Ohnishi et al., 2014; Yamada et al., 2013) (f5-6 offspring of chimeric mice, age- and body weight- matched between groups) were used between 16 and 20 weeks of age. Mice were administered 2 mg/mL Dox in their drinking water supplemented with 10 mg / mL sucrose to induce FOP-ACVR1. Cardiotoxin (9.1 µg/mouse, Latoxan) was injected into the right gastrocnemius muscle to initiate skeletal muscle injury and subsequent heterotopic bone formation (Chakkalakal et al., 2012). Test compounds (16% DMSO in 0.5 w/v% Methyl Cellulose 400) were intraperitoneally administered once a day, five times a week. Mice were analyzed three weeks after injection.
For X- ray images, mice were anesthetized with isoflurane (5% for induction, 2-3% for maintenance, Abbvie), immobilized and X-rayed using µFX-1000 (Fujifilm) or DX-50 (Faxitron Bioptics). µCT images were scanned using X-ray CT systems (inspeXio SMX-100CT, Shimadzu) and analyzed with TRI/3D-BON software (Ratoc System Engineering) according to the manufacturer's instructions. Four weeks after injection, the injected sites were harvested, fixed with 4% paraformaldehyde for 24 h, embedded in paraffin, and sectioned and stained with HE, von Kossa, Safranin O and anti-Collagen I antibody as previously described ( Hino et al., 2015; U med a […]
BMP-7-induced HO model mice. […] Mice were analyzed 2 weeks after injection. […]
Histological analysis of growth plates chondrocytes. Knee joints were obtained from BMP-7-injected and test compounds-administrated C57BL/6NJcl mice after 2 weeks treatment and fixed, paraffin-embedded, and sectioned and stained with Safranin O. The thickness of the proliferative and hypertrophic zones of the growth plate were measured using ImageJ software on images obtained using a Keyence microscope (Keyence A merica). […]

## FC(F)(F)c1ccc(/C=C/c2nc(COc3ccc(CCCCn4ccnn4)cc3)co2)cc1 [TAK 165, mubritinib]
[1]; 5 mg/kg i.p.
  anti-human-specific vimentin-positive cells (survival of transplanted cells): large number
  body weight change compared with vehicle group: No significant differences
  hypertrophic chondrocytes and von Kossa- and COL1-positive bone regions: fewer
[1]; 5 mg/kg i.p. once daily, five times a week, 8 weeks after transplantation
  HO derived from FOP-iMSCs (heterotopic bone volume): significantly suppressed
[2]
  CAGA-Luc (TGF-β-responsive luciferase reporter): did not affect
[3]; 5 mg/kg i.p.
  body weight change compared with vehicle: No apparent differences
  von Kossa or COL1 staining of CTX-injected site: less positive staining
[3]; 5 mg/kg i.p. once daily, five times a week, 3 weeks after CTX
  heterotopic ossification (heterotopic bone volume): significantly suppressed
